Patent US20250312499A1, “KISSPEPTIN RECEPTOR (KISS1R) TARGETED THERAPEUTICS AND USES THEREOF” (priority 2024, published 2025)
Numbered stars: 1 amine (or outer) side, 2 acyl side, 3 side chain; on linkers, the order of the positions; unused ones are H or OH. Square brackets hold non-standard residues; d marks the D form. Peptide text beside a SMILES is read from it. * marks the point of attachment. DOTA = O=C(O)CN1CCN(CC(=O)O)CCN(CC(=O)*)CCN(CC(=O)O)CC1; Gly(N-(3-F-4-Me-benzyl)) = Cc1ccc(CNCC(=O)*)cc1F; Propanoyl(3-(MeO(CH2CH2O)2)) = COCCOCCOCCC(=O)*; HO(CH2CH2O)2CH2CH2CO = O=C(CCOCCOCCO)*; X9 = O=C(CCOCCOCCOCCOCCOCCOCCOCCOCCO)*; X1 = O=C(CN1CCC(N[*:1])CC1)[*:2]; 4Pal = N[C@@H](Cc1ccncc1)C(=O)O; 4Amb = NCc1ccc(C(=O)O)cc1; Api = NC1(C(=O)O)CCNCC1; azaGly = NNC(=O)O

Molecular target: human kisspeptin receptor (Homo sapiens (Human), UniProt Q969F8)
Sequence (Q969F8 whole entry): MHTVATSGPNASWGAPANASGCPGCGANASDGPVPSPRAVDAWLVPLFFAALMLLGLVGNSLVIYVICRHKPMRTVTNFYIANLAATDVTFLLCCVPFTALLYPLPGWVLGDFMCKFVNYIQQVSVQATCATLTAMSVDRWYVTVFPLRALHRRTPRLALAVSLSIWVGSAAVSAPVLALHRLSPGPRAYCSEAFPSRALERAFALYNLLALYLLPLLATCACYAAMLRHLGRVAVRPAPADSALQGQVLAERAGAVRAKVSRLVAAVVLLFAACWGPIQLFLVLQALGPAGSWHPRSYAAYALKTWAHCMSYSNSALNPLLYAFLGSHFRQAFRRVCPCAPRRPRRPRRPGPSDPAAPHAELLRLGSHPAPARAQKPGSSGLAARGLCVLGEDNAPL
Assay: Human KISS1R binding assay (membrane competition binding)
Conditions: 90 min at room temperature; competition with 0.2 nM [125I]-metastin (45-54); Flp-In T-Rex 293 kisspeptin membranes; metal complexes nonradioactive Ga, In, Lu; read-out: hKiSSR Binding Ki (90 min)
In short: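 Membranes from tetracycline-induced (48 h) Flp-In T-Rex 293 cells expressing receptor, 5–10 μg, incubated 90 min at room temperature with 0.2 nM [125I]-metastin (45-54) and competitor (typically 0–10,000 nM) in Tris/Mg/Ca/EGTA/0.1% BSA, pH 7.4. Filtration, washing, counting; Ki by non-linear regression.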

Row | Compound | Ki [µM]
1 | Cc1ccc(CNCC(=O)N2CCC(NC(=O)[C@H](CC(C)C)NC(=O)NNC(=O)[C@H](Cc3ccccc3)NC(=O)CN3CCC(NC(=O)CN4CCN(CC(=O)O)CCN(CC(=O)O)CCN(CC(=O)O)CC4)CC3)(C(=O)N[C@@H](Cc3ccncc3)C(N)=O)CC2)cc1F [Compound 246] ({DOTA}-[X1]F[azaGly]L[Api](Gly(N-(3-F-4-Me-benzyl)))[4Pal]-NH2) | 0.01 to 0.1
2 | Cc1ccc(CNCC(=O)N2CCC(NC(=O)[C@H](CC(C)C)NC(=O)NNC(=O)[C@H](Cc3ccccc3)NC(=O)[C@@H](NC(=O)[C@H](CC(N)=O)NC(=O)CN3CCC(NC(=O)CN4CCN(CC(=O)O)CCN(CC(=O)O)CCN(CC(=O)O)CC4)CC3)[C@@H](C)O)(C(=O)N[C@@H](Cc3ccc(O)cc3)C(N)=O)CC2)cc1F [Compound 249] ({DOTA}-[X1]NTF[azaGly]L[Api](Gly(N-(3-F-4-Me-benzyl)))Y-NH2) | < 0.01
3 | Cc1ccc(CNCC(=O)N2CCC(NC(=O)[C@H](CC(C)C)NC(=O)NNC(=O)[C@H](Cc3ccccc3)NC(=O)[C@@H](NC(=O)[C@H](CC(N)=O)NC(=O)[C@@H](CCCCNC(=O)CN3CCN(CC(=O)O)CCN(CC(=O)O)CCN(CC(=O)O)CC3)NC(=O)CCOCCOCCO)[C@@H](C)O)(C(=O)N[C@@H](Cc3ccncc3)C(N)=O)CC2)cc1F [Compound 254] ({HO(CH2CH2O)2CH2CH2CO}-[dK](DOTA)NTF[azaGly]L[Api](Gly(N-(3-F-4-Me-benzyl)))[4Pal]-NH2) | < 0.01
4 | COCCOCCOCCC(=O)N[C@@H](CCCCNC(=O)CN1CCN(CC(=O)O)CCN(CC(=O)O)CCN(CC(=O)O)CC1)C(=O)N[C@@H](CC(N)=O)C(=O)N[C@H](C(=O)N[C@@H](Cc1ccccc1)C(=O)NNC(=O)N[C@@H](CC(C)C)C(=O)NC1(C(=O)N[C@@H](Cc2ccncc2)C(N)=O)CCN(C(=O)CNCc2ccc(C)c(F)c2)CC1)[C@@H](C)O [Compound 255] ({Propanoyl(3-(MeO(CH2CH2O)2))}-K(DOTA)NTF[azaGly]L[Api](Gly(N-(3-F-4-Me-benzyl)))[4Pal]-NH2) | < 0.01
5 | Cc1ccc(CNCC(=O)N2CCC(NC(=O)[C@H](CC(C)C)NC(=O)NNC(=O)[C@H](Cc3ccccc3)NC(=O)[C@@H](NC(=O)[C@H](CC(N)=O)NC(=O)[C@H](CCCCNC(=O)CN3CCN(CC(=O)O)CCN(CC(=O)O)CCN(CC(=O)O)CC3)NC(=O)CCOCCOCCOCCOCCOCCOCCOCCOCCO)[C@@H](C)O)(C(=O)N[C@@H](Cc3ccncc3)C(N)=O)CC2)cc1F [Compound 256] (X9-K(DOTA)NTF[azaGly]L[Api](Gly(N-(3-F-4-Me-benzyl)))[4Pal]-NH2) | < 0.01
6 | Cc1ccc(CNCC(=O)N2CCC(NC(=O)[C@H](CC(C)C)NC(=O)NNC(=O)[C@H](Cc3ccncc3)NC(=O)[C@@H](NC(=O)[C@H](CC(N)=O)NC(=O)c3ccc(CNC(=O)CN4CCN(CC(=O)O)CCN(CC(=O)O)CCN(CC(=O)O)CC4)cc3)[C@@H](C)O)(C(=O)N[C@@H](Cc3ccncc3)C(N)=O)CC2)cc1F [Compound 259] ({DOTA-4Amb}-NT[4Pal][azaGly]L[Api](Gly(N-(3-F-4-Me-benzyl)))[4Pal]-NH2) | 0.01 to 0.1

Now from value to compound:

Row | Ki [µM] | Compound
7 | < 0.01 | Cc1ccc(CNCC(=O)N2CCC(NC(=O)[C@H](CC(C)C)NC(=O)NNC(=O)[C@H](Cc3ccccc3)NC(=O)CN3CCC(NC(=O)CN4CCN(CC(=O)O)CCN(CC(=O)O)CCN(CC(=O)O)CC4)CC3)(C(=O)N[C@@H](Cc3ccccc3)C(N)=O)CC2)cc1F [Compound 245] ({DOTA}-[X1]F[azaGly]L[Api](Gly(N-(3-F-4-Me-benzyl)))F-NH2)
8 | < 0.01 | Cc1ccc(CNCC(=O)N2CCC(NC(=O)[C@H](CC(C)C)NC(=O)NNC(=O)[C@H](Cc3ccccc3)NC(=O)CN3CCC(NC(=O)CN4CCN(CC(=O)O)CCN(CC(=O)O)CCN(CC(=O)O)CC4)CC3)(C(=O)N[C@@H](Cc3ccc(O)cc3)C(N)=O)CC2)cc1F [Compound 247] ({DOTA}-[X1]F[azaGly]L[Api](Gly(N-(3-F-4-Me-benzyl)))Y-NH2)
9 | > 0.1 | Cc1ccc(CNCC(=O)N2CCC(NC(=O)[C@H](CC(C)C)NC(=O)NNC(=O)[C@H](Cc3ccccc3)NC(=O)CN3CCC(NC(=O)CN4CCN(CC(=O)O)CCN(CC(=O)O)CCN(CC(=O)O)CC4)CC3)(C(=O)N[C@@H](Cc3c[nH]cn3)C(N)=O)CC2)cc1F [Compound 248] ({DOTA}-[X1]F[azaGly]L[Api](Gly(N-(3-F-4-Me-benzyl)))H-NH2)
10 | < 0.01 | Cc1ccc(CNCC(=O)N2CCC(NC(=O)[C@H](CC(C)C)NC(=O)NNC(=O)[C@H](Cc3ccccc3)NC(=O)[C@@H](NC(=O)CN3CCC(NC(=O)CN4CCN(CC(=O)O)CCN(CC(=O)O)CCN(CC(=O)O)CC4)CC3)[C@@H](C)O)(C(=O)N[C@@H](Cc3ccc(O)cc3)C(N)=O)CC2)cc1F [Compound 250] ({DOTA}-[X1]TF[azaGly]L[Api](Gly(N-(3-F-4-Me-benzyl)))Y-NH2)
11 | > 0.1 | Cc1ccc(CNCC(=O)N2CCC(NC(=O)[C@H](CC(C)C)NC(=O)NNC(=O)[C@H](Cc3ccccc3)NC(=O)[C@@H](NC(=O)[C@H](CCCCNC(=O)CN3CCN(CC(=O)O)CCN(CC(=O)O)CCN(CC(=O)O)CC3)NC(=O)CCOCCOCCO)[C@@H](C)O)(C(=O)N[C@@H](Cc3ccncc3)C(N)=O)CC2)cc1F [Compound 251] ({HO(CH2CH2O)2CH2CH2CO}-K(DOTA)TF[azaGly]L[Api](Gly(N-(3-F-4-Me-benzyl)))[4Pal]-NH2)
12 | > 0.1 | Cc1ccc(CNCC(=O)N2CCC(NC(=O)[C@H](CC(C)C)NC(=O)NNC(=O)[C@H](Cc3ccccc3)NC(=O)[C@@H](NC(=O)[C@H](CCC(=O)O)NC(=O)[C@H](CCCCNC(=O)CN3CCN(CC(=O)O)CCN(CC(=O)O)CCN(CC(=O)O)CC3)NC(=O)CCOCCOCCO)[C@@H](C)O)(C(=O)N[C@@H](Cc3ccncc3)C(N)=O)CC2)cc1F [Compound 252] ({HO(CH2CH2O)2CH2CH2CO}-K(DOTA)ETF[azaGly]L[Api](Gly(N-(3-F-4-Me-benzyl)))[4Pal]-NH2)
13 | < 0.01 | Cc1ccc(CNCC(=O)N2CCC(NC(=O)[C@H](CC(C)C)NC(=O)NNC(=O)[C@H](Cc3ccccc3)NC(=O)[C@@H](NC(=O)[C@H](CC(N)=O)NC(=O)[C@H](CCCCNC(=O)CN3CCN(CC(=O)O)CCN(CC(=O)O)CCN(CC(=O)O)CC3)NC(=O)CCOCCOCCO)[C@@H](C)O)(C(=O)N[C@@H](Cc3ccncc3)C(N)=O)CC2)cc1F [Compound 253] ({HO(CH2CH2O)2CH2CH2CO}-K(DOTA)NTF[azaGly]L[Api](Gly(N-(3-F-4-Me-benzyl)))[4Pal]-NH2)
14 | > 0.1 | Cc1ccc(CNCC(=O)N2CCC(NC(=O)[C@H](CC(C)C)NC(=O)NNC(=O)[C@H](Cc3ccncc3)NC(=O)[C@@H](NC(=O)[C@H](CC(N)=O)NC(=O)CN3CCC(NC(=O)CN4CCN(CC(=O)O)CCN(CC(=O)O)CCN(CC(=O)O)CC4)CC3)[C@@H](C)O)(C(=O)N[C@@H](Cc3ccncc3)C(N)=O)CC2)cc1F [Compound 258] ({DOTA}-[X1]NT[4Pal][azaGly]L[Api](Gly(N-(3-F-4-Me-benzyl)))[4Pal]-NH2)
15 | 0.01 to 0.1 | Cc1ccc(CNCC(=O)N2CCC(NC(=O)[C@@H](CC(C)C)NC(=O)NNC(=O)[C@H](Cc3ccccc3)NC(=O)c3ccc(CNC(=O)CN4CCN(CC(=O)O)CCN(CC(=O)O)CCN(CC(=O)O)CC4)cc3)(C(=O)N[C@@H](Cc3c[nH]c4ccccc34)C(N)=O)CC2)cc1F [Compound 260] ({DOTA-4Amb}-F[azaGly][dL][Api](Gly(N-(3-F-4-Me-benzyl)))W-NH2)
